# Test results taken from ChEMBL document CHEMBL4190187, “Discovery of pyrazolopyrimidine derivatives as novel inhibitors of ataxia telangiectasia and rad3 related protein (ATR)” (Bioorg Med Chem Lett, 2017).
# What was measured:
# [1] = target: Serine/threonine-protein kinase 17B (Homo sapiens) (UniProt O94768); assay: Inhibition of recombinant full-length human DRAK2 at 1 uM using KKRPQRRYSNVF as substrate after 120 mins in presence of [gamma-33P]ATP by scintillation counting method
# [2] = target: Ephrin type-A receptor 2 (Homo sapiens) (UniProt P29317); assay: Inhibition of recombinant human EPHA2 (596 to 900 residues) at 1 uM using poly(Glu,Tyr) 4:1 as substrate after 40 mins in presence of [gamma-33P]ATP by scintillation counting method
# [3] = target: Bone morphogenetic protein receptor type-2 (Homo sapiens) (UniProt Q13873); assay: Inhibition of recombinant human BMPR2 (172 to 734 residues) at 1 uM using myelin basic protein as substrate after 120 mins in presence of [gamma-33P]ATP by scintillation counting method
# Chain of Bone morphogenetic protein receptor type-2 (Homo sapiens) (Q13873 whole entry, the tested form may be a part): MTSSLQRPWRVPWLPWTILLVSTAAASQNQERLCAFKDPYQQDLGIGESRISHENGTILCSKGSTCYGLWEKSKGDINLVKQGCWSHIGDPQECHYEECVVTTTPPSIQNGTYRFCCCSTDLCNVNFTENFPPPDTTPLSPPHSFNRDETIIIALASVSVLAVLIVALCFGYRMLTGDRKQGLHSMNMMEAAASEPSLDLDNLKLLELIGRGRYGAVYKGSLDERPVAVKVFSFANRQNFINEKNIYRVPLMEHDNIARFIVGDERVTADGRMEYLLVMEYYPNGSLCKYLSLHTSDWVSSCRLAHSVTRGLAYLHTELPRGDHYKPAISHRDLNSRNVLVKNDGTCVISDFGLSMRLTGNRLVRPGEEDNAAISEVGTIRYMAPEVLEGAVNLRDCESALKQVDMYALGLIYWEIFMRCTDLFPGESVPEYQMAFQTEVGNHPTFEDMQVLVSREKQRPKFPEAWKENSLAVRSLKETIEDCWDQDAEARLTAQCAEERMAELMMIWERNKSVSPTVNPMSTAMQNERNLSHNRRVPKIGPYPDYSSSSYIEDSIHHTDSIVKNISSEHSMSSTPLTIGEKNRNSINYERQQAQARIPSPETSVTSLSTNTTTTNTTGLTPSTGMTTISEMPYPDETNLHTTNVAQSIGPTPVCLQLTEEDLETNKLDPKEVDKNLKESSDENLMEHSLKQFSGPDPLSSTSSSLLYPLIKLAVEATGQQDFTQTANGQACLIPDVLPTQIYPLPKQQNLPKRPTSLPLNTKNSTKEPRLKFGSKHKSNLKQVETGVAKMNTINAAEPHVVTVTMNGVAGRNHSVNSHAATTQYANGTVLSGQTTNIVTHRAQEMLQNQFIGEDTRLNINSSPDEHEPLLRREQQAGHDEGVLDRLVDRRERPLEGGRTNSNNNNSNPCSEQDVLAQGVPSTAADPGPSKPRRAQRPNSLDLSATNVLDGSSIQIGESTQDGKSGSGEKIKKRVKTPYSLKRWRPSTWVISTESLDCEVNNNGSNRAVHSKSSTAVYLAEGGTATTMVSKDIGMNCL
# [4] = target: Mitogen-activated protein kinase kinase kinase kinase 1 (Homo sapiens) (UniProt Q92918); assay: Inhibition of recombinant human HPK1 (1 to 346 residues) at 1 uM using myelin basic protein as substrate after 40 mins in presence of [gamma-33P]ATP by scintillation counting method
# [5] = target: Tyrosine-protein kinase Lck (Homo sapiens) (UniProt P06239); assay: Inhibition of recombinant full-length human activated Lck at 1 uM using KVEKIGEGTYGVVYK as substrate after 40 mins in presence of [gamma-33P]ATP by scintillation counting method
# [6] = target: Insulin-like growth factor 1 receptor (Homo sapiens) (UniProt P08069); assay: Inhibition of recombinant human IGF-1R (959 to end residues) at 1 uM using KKKSPGEYVNIEFG as substrate after 40 mins in presence of [gamma-33P]ATP by scintillation counting method
# [7] = target: Tyrosine-protein kinase Blk (Homo sapiens) (UniProt P51451); assay: Inhibition of recombinant full-length human Blk at 1 uM using poly(Glu,Tyr) 4:1 as substrate after 40 mins in presence of [gamma-33P]ATP by scintillation counting method
# Chain of Tyrosine-protein kinase Blk (Homo sapiens) (P51451 2-505 limits assumed): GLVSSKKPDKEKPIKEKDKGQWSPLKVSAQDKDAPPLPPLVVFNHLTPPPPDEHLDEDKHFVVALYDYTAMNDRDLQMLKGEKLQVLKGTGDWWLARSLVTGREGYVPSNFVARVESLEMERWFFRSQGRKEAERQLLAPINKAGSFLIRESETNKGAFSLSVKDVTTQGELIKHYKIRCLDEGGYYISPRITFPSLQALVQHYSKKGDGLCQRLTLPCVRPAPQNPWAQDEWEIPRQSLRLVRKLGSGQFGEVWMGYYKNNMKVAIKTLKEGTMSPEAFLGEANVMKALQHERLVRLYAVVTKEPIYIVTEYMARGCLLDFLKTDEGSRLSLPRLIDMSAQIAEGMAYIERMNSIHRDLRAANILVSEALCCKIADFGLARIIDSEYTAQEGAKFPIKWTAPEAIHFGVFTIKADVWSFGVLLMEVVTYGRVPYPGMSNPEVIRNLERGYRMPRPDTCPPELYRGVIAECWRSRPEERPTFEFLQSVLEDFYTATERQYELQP
# [8] = target: Serine/threonine-protein kinase PAK 6 (Homo sapiens) (UniProt Q9NQU5); assay: Inhibition of recombinant human PAK6 (382 to end residues) at 1 uM using RRRLSFAEPG as substrate after 40 mins in presence of [gamma-33P]ATP by scintillation counting method
# Chain of Serine/threonine-protein kinase PAK 6 (Homo sapiens) (Q9NQU5 whole entry, looked up, the tested form may be a part): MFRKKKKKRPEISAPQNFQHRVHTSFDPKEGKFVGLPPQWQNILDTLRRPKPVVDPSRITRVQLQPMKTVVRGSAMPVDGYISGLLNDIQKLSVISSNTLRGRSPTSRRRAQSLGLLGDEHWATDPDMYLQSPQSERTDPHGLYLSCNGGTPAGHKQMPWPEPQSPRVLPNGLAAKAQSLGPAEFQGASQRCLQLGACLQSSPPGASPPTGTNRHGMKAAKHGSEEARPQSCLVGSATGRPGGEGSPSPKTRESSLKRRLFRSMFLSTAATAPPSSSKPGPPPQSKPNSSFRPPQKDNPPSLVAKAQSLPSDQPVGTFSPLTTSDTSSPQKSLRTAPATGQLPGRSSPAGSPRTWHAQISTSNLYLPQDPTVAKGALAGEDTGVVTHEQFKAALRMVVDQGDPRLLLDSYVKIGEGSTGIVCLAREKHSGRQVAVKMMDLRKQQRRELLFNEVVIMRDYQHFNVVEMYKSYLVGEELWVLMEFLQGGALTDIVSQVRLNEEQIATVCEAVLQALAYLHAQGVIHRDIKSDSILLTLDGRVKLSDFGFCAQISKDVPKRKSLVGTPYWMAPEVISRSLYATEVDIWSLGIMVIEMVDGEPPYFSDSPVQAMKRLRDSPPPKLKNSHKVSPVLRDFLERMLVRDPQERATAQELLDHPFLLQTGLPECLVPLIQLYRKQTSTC
# [9] = target: Mitogen-activated protein kinase kinase kinase 10 (Homo sapiens) (UniProt Q02779); assay: Inhibition of recombinant human MLK2 (1 to 449 residues) at 1 uM using myelin basic protein as substrate after 40 mins in presence of [gamma-33P]ATP by scintillation counting method
# [10] = system: Serine/threonine-protein kinase B-raf (Homo sapiens), P15056 [V600E]; assay: Inhibition of recombinant human B-raf V599E mutant (416 to end residues) at 1 uM using myelin basic protein as substrate after 40 mins in presence of [gamma-33P]ATP by scintillation counting method
# [11] = system: PI3-kinase p110-alpha/p85-alpha (Homo sapiens), P27986+P42336 [E542K]; assay: Inhibition of recombinant full-length human p110a E542K mutant/p85a at 1 uM using phosphatidylinositol 4,5-bisphosphate as substrate after 40 mins in presence of [gamma-33P]ATP by scintillation counting method; assay type: protein-complex assay
# [12] = target: Mitogen-activated protein kinase kinase kinase 9 (Homo sapiens) (UniProt P80192); assay: Inhibition of recombinant human MLK1 (134 to 414 residues) at 1 uM using casein as substrate after 40 mins in presence of [gamma-33P]ATP by scintillation counting method
# [13] = target: Serine/threonine-protein kinase 10 (Homo sapiens) (UniProt O94804); assay: Inhibition of recombinant human LOK (1 to 348 residues) at 1 uM using RLGRDKYKTLRQIRQ as substrate after 40 mins in presence of [gamma-33P]ATP by scintillation counting method
# Chain of Serine/threonine-protein kinase 10 (Homo sapiens) (O94804 whole entry, looked up, the tested form may be a part): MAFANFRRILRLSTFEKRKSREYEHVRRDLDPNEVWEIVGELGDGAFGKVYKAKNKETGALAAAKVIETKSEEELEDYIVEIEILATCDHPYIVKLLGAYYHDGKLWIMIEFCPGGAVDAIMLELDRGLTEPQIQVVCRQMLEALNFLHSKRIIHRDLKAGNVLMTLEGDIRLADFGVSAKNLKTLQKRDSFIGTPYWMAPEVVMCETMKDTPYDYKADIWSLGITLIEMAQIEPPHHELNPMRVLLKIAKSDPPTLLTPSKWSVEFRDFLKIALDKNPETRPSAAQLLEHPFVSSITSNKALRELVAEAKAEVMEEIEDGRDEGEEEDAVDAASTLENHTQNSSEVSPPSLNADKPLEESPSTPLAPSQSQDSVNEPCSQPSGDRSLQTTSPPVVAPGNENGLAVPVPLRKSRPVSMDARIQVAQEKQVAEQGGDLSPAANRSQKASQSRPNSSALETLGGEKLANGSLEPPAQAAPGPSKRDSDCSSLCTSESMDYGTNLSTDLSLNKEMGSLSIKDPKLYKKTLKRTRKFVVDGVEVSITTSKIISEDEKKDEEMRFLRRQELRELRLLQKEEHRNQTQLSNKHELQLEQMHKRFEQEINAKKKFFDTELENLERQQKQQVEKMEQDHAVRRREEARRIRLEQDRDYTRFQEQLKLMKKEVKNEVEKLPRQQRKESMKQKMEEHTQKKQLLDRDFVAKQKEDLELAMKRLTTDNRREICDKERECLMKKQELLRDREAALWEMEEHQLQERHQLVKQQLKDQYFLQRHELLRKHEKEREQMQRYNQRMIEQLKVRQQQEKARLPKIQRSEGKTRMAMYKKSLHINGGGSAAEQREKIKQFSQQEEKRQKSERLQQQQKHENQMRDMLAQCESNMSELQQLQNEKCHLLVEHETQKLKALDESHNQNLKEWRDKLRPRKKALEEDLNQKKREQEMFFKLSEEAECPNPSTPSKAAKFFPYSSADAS
# [14] = target: Mitogen-activated protein kinase kinase kinase kinase 5 (Homo sapiens) (UniProt Q9Y4K4); assay: Inhibition of recombinant full-length human MAP4K5 at 1 uM using myelin basic protein as substrate after 40 mins in presence of [gamma-33P]ATP by scintillation counting method
# [15] = target: cAMP-dependent protein kinase catalytic subunit alpha (Homo sapiens) (UniProt P17612); assay: Inhibition of recombinant full-length human PRKACA at 1 uM using LRRASLG (Kemptide) as substrate after 40 mins in presence of [gamma-33P]ATP by scintillation counting method
# [16] = target: Casein kinase I isoform gamma-1 (Homo sapiens) (UniProt Q9HCP0); assay: Inhibition of recombinant human CK1gamma1 (25 to 355 residues) at 1 uM using KRRRALS(p)VASLPGL as substrate after 40 mins in presence of [gamma-33P]ATP by scintillation counting method
# [17] = target: Insulin receptor-related protein (Homo sapiens) (UniProt P14616); assay: Inhibition of recombinant human IRR (943 to 1266 residues) at 1 uM using myelin basic protein as substrate after 40 mins in presence of [gamma-33P]ATP by scintillation counting method
# Chain of Insulin receptor-related protein (Homo sapiens) (P14616 27-742 limits assumed): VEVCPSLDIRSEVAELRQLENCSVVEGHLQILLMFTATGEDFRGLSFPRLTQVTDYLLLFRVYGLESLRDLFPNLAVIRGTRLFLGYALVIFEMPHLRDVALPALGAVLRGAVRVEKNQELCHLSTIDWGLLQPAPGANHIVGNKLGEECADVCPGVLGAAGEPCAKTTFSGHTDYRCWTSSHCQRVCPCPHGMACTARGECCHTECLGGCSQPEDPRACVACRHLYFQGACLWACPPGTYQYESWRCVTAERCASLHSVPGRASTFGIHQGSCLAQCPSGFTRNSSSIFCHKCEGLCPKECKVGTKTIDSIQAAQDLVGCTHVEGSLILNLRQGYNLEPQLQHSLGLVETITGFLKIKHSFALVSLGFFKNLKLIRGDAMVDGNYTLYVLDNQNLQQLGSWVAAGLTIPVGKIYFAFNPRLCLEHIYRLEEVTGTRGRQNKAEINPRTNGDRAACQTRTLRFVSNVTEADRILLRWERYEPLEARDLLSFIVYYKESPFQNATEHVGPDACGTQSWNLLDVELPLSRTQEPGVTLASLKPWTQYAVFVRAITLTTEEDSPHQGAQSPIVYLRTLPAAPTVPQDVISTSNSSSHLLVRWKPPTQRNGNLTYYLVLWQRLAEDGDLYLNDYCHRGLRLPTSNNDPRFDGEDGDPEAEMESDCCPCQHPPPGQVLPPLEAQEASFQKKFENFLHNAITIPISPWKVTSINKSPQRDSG
# Chain of Insulin receptor-related protein (Homo sapiens) (P14616 747-1297 limits assumed): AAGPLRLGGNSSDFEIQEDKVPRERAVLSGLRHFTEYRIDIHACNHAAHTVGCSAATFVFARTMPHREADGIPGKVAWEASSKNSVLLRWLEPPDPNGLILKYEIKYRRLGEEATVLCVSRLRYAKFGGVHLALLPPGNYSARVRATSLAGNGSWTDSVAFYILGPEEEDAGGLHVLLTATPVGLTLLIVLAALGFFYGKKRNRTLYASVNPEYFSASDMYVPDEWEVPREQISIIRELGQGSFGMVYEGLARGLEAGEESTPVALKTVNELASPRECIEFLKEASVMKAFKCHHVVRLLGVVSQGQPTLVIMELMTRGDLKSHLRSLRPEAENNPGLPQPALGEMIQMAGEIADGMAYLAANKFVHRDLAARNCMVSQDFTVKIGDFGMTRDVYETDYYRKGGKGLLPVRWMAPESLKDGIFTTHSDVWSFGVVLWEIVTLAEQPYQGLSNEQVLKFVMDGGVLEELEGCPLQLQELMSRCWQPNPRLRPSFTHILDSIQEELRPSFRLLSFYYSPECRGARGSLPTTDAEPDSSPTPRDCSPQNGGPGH
# [18] = target: Protein-tyrosine kinase 6 (Homo sapiens) (UniProt Q13882); assay: Inhibition of recombinant full-length human BRK at 1 uM using poly(Glu,Tyr) 4:1 as substrate after 40 mins in presence of [gamma-33P]ATP by scintillation counting method
# Chain of Protein-tyrosine kinase 6 (Homo sapiens) (Q13882 whole entry, looked up, the tested form may be a part): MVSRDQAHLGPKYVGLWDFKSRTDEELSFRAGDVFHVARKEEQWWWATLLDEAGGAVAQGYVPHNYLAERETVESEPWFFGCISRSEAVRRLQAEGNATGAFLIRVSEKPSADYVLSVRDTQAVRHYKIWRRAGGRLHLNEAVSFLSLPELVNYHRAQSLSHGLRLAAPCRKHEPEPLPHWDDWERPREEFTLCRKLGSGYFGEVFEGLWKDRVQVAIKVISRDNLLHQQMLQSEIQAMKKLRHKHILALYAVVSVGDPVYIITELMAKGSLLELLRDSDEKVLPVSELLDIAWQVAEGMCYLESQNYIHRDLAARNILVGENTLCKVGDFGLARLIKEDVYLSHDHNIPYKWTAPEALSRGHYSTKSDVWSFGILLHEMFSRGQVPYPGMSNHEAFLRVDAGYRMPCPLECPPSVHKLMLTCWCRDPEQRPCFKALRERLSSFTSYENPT
# [19] = target: Ephrin type-B receptor 3 (Homo sapiens) (UniProt P54753); assay: Inhibition of recombinant human EPHB3 (599 to 920 residues) at 1 uM using poly(Glu,Tyr) 4:1 as substrate after 40 mins in presence of [gamma-33P]ATP by scintillation counting method
# [20] = target: Cytoplasmic tyrosine-protein kinase BMX (Homo sapiens) (UniProt P51813); assay: Inhibition of recombinant full-length human BMX at 1 uM using poly(Glu,Tyr) 4:1 as substrate after 40 mins in presence of [gamma-33P]ATP by scintillation counting method
# [21] = system: Tyrosine-protein kinase ABL1 (Homo sapiens), P00519 [Y253F]; assay: Inhibition of recombinant human Abl Y253F mutant (27 to end residues) at 1 uM using EAIYAAPFAKKK as substrate after 40 mins in presence of [gamma-33P]ATP by scintillation counting method
# [22] = target: Casein kinase I isoform gamma-3 (Homo sapiens) (UniProt Q9Y6M4); assay: Inhibition of recombinant human CK1gamma3 (1 to 330 residues) at 1 uM using KRRRALS(p)VASLPGL as substrate after 40 mins in presence of [gamma-33P]ATP by scintillation counting method
# [23] = target: Mitogen-activated protein kinase 12 (Homo sapiens) (UniProt P53778); assay: Inhibition of recombinant full-length human SAPK3 at 1 uM using myelin basic protein as substrate after 40 mins in presence of [gamma-33P]ATP by scintillation counting method
# [24] = target: Macrophage-stimulating protein receptor (Homo sapiens) (UniProt Q04912); assay: Inhibition of recombinant human Ron (983 to end residues) at 1 uM using GGMEDIYFEFMGGKKK as substrate after 40 mins in presence of [gamma-33P]ATP by scintillation counting method
structure (smiles),measurement,setting,value
CS(=O)(=O)c1ccc(-n2nc(-c3cnc4[nH]ccc4c3)c3c(N)ncnc32)cc1,inhibition,[1],7%
same,inhibition,[2],9%
same,inhibition,[3],2%
same,inhibition,[4],2%
same,inhibition,[5],38%
same,inhibition,[6],-2%
same,inhibition,[7],40%
same,inhibition,[8],7%
same,inhibition,[9],-1%
same,inhibition,[10],93%
same,inhibition,[11],7%
same,inhibition,[12],13%
same,inhibition,[13],-5%
same,inhibition,[14],1%
same,inhibition,[15],4%
same,inhibition,[16],4%
same,inhibition,[17],-7%
same,inhibition,[18],102%
same,inhibition,[19],-2%
same,inhibition,[20],47%
same,inhibition,[21],85%
same,inhibition,[22],9%
same,inhibition,[23],2%
same,inhibition,[24],2%
